Measured values published in US20170190671A1, “BIS(ARYL)CATECHOL DERIVATIVES AS HERBICIDES” (E I DU PONT DE NEMOURS AND COMPANY, priority 2014, published 2017).

Experiments:
Format in all cases: in vivo
[1] = system: velvetleaf (Abutilon theophrasti); assay: Test C postemergence; conditions: Abutilon theophrasti, post-emergence, Postemergence, scale 0 to 100, read-out: Plant response rating, Velvetleaf
How it was run: (§1)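 After preemergence treatment of seeds in loam-sand soil or foliar treatment at the 1- to 4-leaf stage of plants in peat/vermiculite medium, pots were kept 13-15 days in the greenhouse. Each was then scored visually, 0 meaning no effect and 100 complete control.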

[2] = system: giant foxtail (Setaria faberii); assay: Test C postemergence; conditions: Setaria faberi, post-emergence, 336 h, Postemergence, scale 0 to 100, read-out: Plant response rating, Foxtail, Giant
How it was run: as §1

[3] = system: yellow nutsedge (Cyperus esculentus); assay: Test C postemergence; conditions: Cyperus, post-emergence, 336 h, Postemergence, scale 0 to 100, read-out: Plant response rating, Nutsedge, Yellow
How it was run: as §1

[4] = system: chickweed (common chickweed, Stellaria media); assay: Test C postemergence; conditions: Stellaria media, post-emergence, Postemergence, scale 0 to 100, read-out: Plant response rating, Chickweed
How it was run: as §1

[5] = system: blackgrass (Alopecurus myosuroides); assay: Test C postemergence; conditions: Alopecurus myosuroides, post-emergence, 336 h, Postemergence, scale 0 to 100, read-out: Plant response rating, Blackgrass
How it was run: as §1

[6] = system: lambsquarters (Chenopodium album); assay: Test C postemergence; conditions: Chenopodium album, post-emergence, 336 h, Postemergence, scale 0 to 100, read-out: Plant response rating, Lambsquarters
How it was run: as §1

[7] = system: velvetleaf (Abutilon theophrasti); assay: Test C preemergence; conditions: Abutilon theophrasti, pre-emergence, scale 0 to 100, read-out: Plant response rating, Velvetleaf
How it was run: as §1

[8] = system: morningglory (Ipomoea coccinea); assay: Test C preemergence; conditions: Ipomoea, pre-emergence, 336 h, scale 0 to 100, read-out: Plant response rating, Morningglory
How it was run: as §1

[9] = system: pigweed (Amaranthus retroflexus); assay: Test C preemergence; conditions: Amaranthus retroflexus, pre-emergence, 336 h, scale 0 to 100, read-out: Plant response rating, Pigweed
How it was run: as §1

[10] = system: giant foxtail (Setaria faberii); assay: Test C preemergence; conditions: Setaria faberi, pre-emergence, 336 h, scale 0 to 100, read-out: Plant response rating, Foxtail, Giant
How it was run: as §1

[11] = system: oilseed rape (Brassica napus); assay: Test C preemergence; conditions: Brassica napus, pre-emergence, scale 0 to 100, read-out: Plant response rating, Oilseed Rape
How it was run: as §1

[12] = system: yellow nutsedge (Cyperus esculentus); assay: Test C preemergence; conditions: Cyperus, pre-emergence, 336 h, scale 0 to 100, read-out: Plant response rating, Nutsedge, Yellow
How it was run: as §1

[13] = system: large (Lg) crabgrass (Digitaria sanguinalis); assay: Test C preemergence; conditions: Digitaria sanguinalis, pre-emergence, 336 h, scale 0 to 100, read-out: Plant response rating, Crabgrass, Large
How it was run: as §1

[14] = system: johnsongrass (Sorghum halepense); assay: Test C preemergence; conditions: Sorghum halepense, pre-emergence, 336 h, scale 0 to 100, read-out: Plant response rating, Johnsongrass
How it was run: as §1

[15] = system: winter wheat (Triticum aestivum); assay: Test C preemergence; conditions: Triticum aestivum, pre-emergence, 336 h, scale 0 to 100, read-out: Plant response rating, Wheat
How it was run: as §1

[16] = system: blackgrass (Alopecurus myosuroides); assay: Test C preemergence; conditions: Alopecurus myosuroides, pre-emergence, 336 h, scale 0 to 100, read-out: Plant response rating, Blackgrass
How it was run: as §1

[17] = system: ragweed (common ragweed, Ambrosia elatior); assay: Test C preemergence; conditions: Ambrosia artemisiifolia, pre-emergence, 336 h, scale 0 to 100, read-out: Plant response rating, Ragweed
How it was run: as §1

soybean (Glycine max) = assay: Test C preemergence; conditions: Glycine max, pre-emergence, scale 0 to 100, read-out: Plant response rating, Soybean
How it was run: as §1

[18] = system: galium (catchweed bedstraw, Galium aparine); assay: Test C preemergence; conditions: Galium, pre-emergence, 336 h, scale 0 to 100, read-out: Plant response rating, Galium
How it was run: as §1

[19] = system: waterhemp (common waterhemp, Amaranthus rudis); assay: Test C preemergence; conditions: Amaranthus tuberculatus, pre-emergence, scale 0 to 100, read-out: Plant response rating, Waterhemp
How it was run: as §1

[20] = system: Italian ryegrass (Lolium multiflorum); assay: Test C preemergence; conditions: Lolium multiflorum, pre-emergence, 336 h, scale 0 to 100, read-out: Plant response rating, Ryegrass, Italian
How it was run: as §1

corn (Zea mays) = assay: Test C preemergence; conditions: Zea mays, pre-emergence, 336 h, scale 0 to 100
How it was run: as §1

SMILES: Fc1ccc(F)c(Oc2ncc(Cl)cn2)c1Oc1ncc(Cl)cn1 [Compound 34, 2,2′-[(3,6-difluoro-1,2-phenylene)bis(oxy)]bis[5-chloropyrimidine]]
- pest or weed control at 31 g/ha ([1]; 31 g ai/ha): 60%
- pest or weed control at 62 g/ha ([1]; 62 g ai/ha): 60%
- pest or weed control at 125 g/ha ([1]; 125 g ai/ha): 65%
- pest or weed control at 16 g/ha ([2]; 16 g ai/ha): 5%
- pest or weed control at 31 g/ha ([2]; 31 g ai/ha): 5%
- pest or weed control at 62 g/ha ([2]; 62 g ai/ha): 5%
- pest or weed control at 125 g/ha ([2]; 125 g ai/ha): 25%
- pest or weed control at 31 g/ha ([3]; 31 g ai/ha): 10%
- pest or weed control at 62 g/ha ([3]; 62 g ai/ha): 10%
- pest or weed control at 125 g/ha ([3]; 125 g ai/ha): 10%
- pest or weed control at 16 g/ha ([4]; 16 g ai/ha): 50%
- pest or weed control at 31 g/ha ([4]; 31 g ai/ha): 50%
- pest or weed control at 62 g/ha ([4]; 62 g ai/ha): 80%
- pest or weed control at 125 g/ha ([4]; 125 g ai/ha): 95%
- pest or weed control at 16 g/ha ([5]; 16 g ai/ha): 0%
- pest or weed control at 31 g/ha ([5]; 31 g ai/ha): 0%
- pest or weed control at 62 g/ha ([5]; 62 g ai/ha): 0%
- pest or weed control at 125 g/ha ([5]; 125 g ai/ha): 5%
- pest or weed control at 16 g/ha ([6]; 16 g ai/ha): 55%
- pest or weed control at 31 g/ha ([6]; 31 g ai/ha): 75%
- pest or weed control at 62 g/ha ([6]; 62 g ai/ha): 70%
- pest or weed control at 125 g/ha ([6]; 125 g ai/ha): 80%
- pest or weed control at 31 g/ha ([7]; 31 g ai/ha, preemergence): 45%
- pest or weed control at 62 g/ha ([7]; 62 g ai/ha, preemergence): 70%
- pest or weed control at 125 g/ha ([7]; 125 g ai/ha, preemergence): 80%
- pest or weed control at 16 g/ha ([7]; Preemergence, 16 g ai/ha): 35%
- pest or weed control at 31 g/ha ([8]; 31 g ai/ha, preemergence): 20%
- pest or weed control at 62 g/ha ([8]; 62 g ai/ha, preemergence): 60%
- pest or weed control at 125 g/ha ([8]; 125 g ai/ha, preemergence): 90%
- pest or weed control at 16 g/ha ([8]; Preemergence, 16 g ai/ha): 0%
- pest or weed control at 31 g/ha ([9]; 31 g ai/ha, preemergence): 100%
- pest or weed control at 62 g/ha ([9]; 62 g ai/ha, preemergence): 100%
- pest or weed control at 125 g/ha ([9]; 125 g ai/ha, preemergence): 100%
- pest or weed control at 16 g/ha ([9]; Preemergence, 16 g ai/ha): 100%
- pest or weed control at 31 g/ha ([10]; 31 g ai/ha, preemergence): 98%
- pest or weed control at 62 g/ha ([10]; 62 g ai/ha, preemergence): 100%
- pest or weed control at 125 g/ha ([10]; 125 g ai/ha, preemergence): 100%
- pest or weed control at 16 g/ha ([10]; Preemergence, 16 g ai/ha): 70%
- plant injury at 31 g/ha ([11]; 31 g ai/ha, preemergence): 90%
- plant injury at 62 g/ha ([11]; 62 g ai/ha, preemergence): 90%
- plant injury at 125 g/ha ([11]; 125 g ai/ha, preemergence): 90%
- plant injury at 16 g/ha ([11]; Preemergence, 16 g ai/ha): 30%
- pest or weed control at 31 g/ha ([12]; 31 g ai/ha, preemergence): 0%
- pest or weed control at 62 g/ha ([12]; 62 g ai/ha, preemergence): 0%
- pest or weed control at 125 g/ha ([12]; 125 g ai/ha, preemergence): 5%
- pest or weed control at 16 g/ha ([12]; Preemergence, 16 g ai/ha): 0%
- pest or weed control at 31 g/ha ([13]; 31 g ai/ha, preemergence): 85%
- pest or weed control at 62 g/ha ([13]; 62 g ai/ha, preemergence): 98%
- pest or weed control at 125 g/ha ([13]; 125 g ai/ha, preemergence): 100%
- pest or weed control at 16 g/ha ([13]; Preemergence, 16 g ai/ha): 80%
- pest or weed control at 31 g/ha ([14]; 31 g ai/ha, preemergence): 55%
- pest or weed control at 62 g/ha ([14]; 62 g ai/ha, preemergence): 75%
- pest or weed control at 125 g/ha ([14]; 125 g ai/ha, preemergence): 98%
- pest or weed control at 16 g/ha ([14]; Preemergence, 16 g ai/ha): 50%
- plant injury at 31 g/ha ([15]; 31 g ai/ha, preemergence): 0%
- plant injury at 62 g/ha ([15]; 62 g ai/ha, preemergence): 15%
- plant injury at 125 g/ha ([15]; 125 g ai/ha, preemergence): 10%
- plant injury at 16 g/ha ([15]; Preemergence, 16 g ai/ha): 0%
- pest or weed control at 31 g/ha ([16]; 31 g ai/ha, preemergence): 0%
- pest or weed control at 62 g/ha ([16]; 62 g ai/ha, preemergence): 60%
- pest or weed control at 125 g/ha ([16]; 125 g ai/ha, preemergence): 70%
- pest or weed control at 16 g/ha ([16]; Preemergence, 16 g ai/ha): 0%
- pest or weed control at 31 g/ha ([17]; 31 g ai/ha, preemergence): 0%
- pest or weed control at 62 g/ha ([17]; 62 g ai/ha, preemergence): 25%
- pest or weed control at 125 g/ha ([17]; 125 g ai/ha, preemergence): 40%
- pest or weed control at 16 g/ha ([17]; Preemergence, 16 g ai/ha): 0%
- plant injury at 31 g/ha (soybean (Glycine max); 31 g ai/ha, preemergence): 20%
- plant injury at 62 g/ha (soybean (Glycine max); 62 g ai/ha, preemergence): 45%
- plant injury at 125 g/ha (soybean (Glycine max); 125 g ai/ha, preemergence): 55%
- plant injury at 16 g/ha (soybean (Glycine max); Preemergence, 16 g ai/ha): 5%
- pest or weed control at 31 g/ha ([18]; 31 g ai/ha, preemergence): 95%
- pest or weed control at 62 g/ha ([18]; 62 g ai/ha, preemergence): 95%
- pest or weed control at 125 g/ha ([18]; 125 g ai/ha, preemergence): 98%
- pest or weed control at 16 g/ha ([18]; Preemergence, 16 g ai/ha): 90%
- pest or weed control at 31 g/ha ([19]; 31 g ai/ha, preemergence): 100%
- pest or weed control at 62 g/ha ([19]; 62 g ai/ha, preemergence): 100%
- pest or weed control at 125 g/ha ([19]; 125 g ai/ha, preemergence): 100%
- pest or weed control at 16 g/ha ([19]; Preemergence, 16 g ai/ha): 100%
- pest or weed control at 31 g/ha ([20]; 31 g ai/ha, preemergence): 5%
- pest or weed control at 62 g/ha ([20]; 62 g ai/ha, preemergence): 10%
- pest or weed control at 125 g/ha ([20]; 125 g ai/ha, preemergence): 35%
- pest or weed control at 16 g/ha ([20]; Preemergence, 16 g ai/ha): 0%
- Corn plant response rating (crop injury, 0 = no effect, 100 = complete kill) at 31 g/ha (corn (Zea mays); 31 g ai/ha, preemergence): 5%
- Corn plant response rating (crop injury, 0 = no effect, 100 = complete kill) at 62 g/ha (corn (Zea mays); 62 g ai/ha, preemergence): 20%
- Corn plant response rating (crop injury, 0 = no effect, 100 = complete kill) at 125 g/ha (corn (Zea mays); 125 g ai/ha, preemergence): 40%
- Corn plant response rating (crop injury, 0 = no effect, 100 = complete kill) at 16 g/ha (corn (Zea mays); Preemergence, 16 g ai/ha): 0%
